Values of other authors in patent US10550186B2, “Cancer therapy targeting intercellular adhesion molecule 4 (ICAM4)” (Beth Israel Deaconess Medical Center, Inc., priority 2014, dated 2020).

Conditions: more cytotoxic than the comparators

SMILES: COc1cc2cc(c1Cl)N(C)C(=O)C[C@H](OC(=O)[C@H](C)N(C)C(C)=O)[C@]1(C)O[C@H]1[C@H](C)[C@@H]1C[C@@](O)(NC(=O)O1)[C@H](OC)/C=C/C=C(\C)C2 [Maytansine]
- cytotoxicity relative to doxorubicin, methotrexate and vinca alkyloid: 100- to 1000 fold
